Assay results as given in patent publication US20250302968A1, “RADIATION CLEAVED DRUG-CONJUGATE LINKERS ENABLE LOCAL PAYLOAD RELEASE SCLEROSIS” (The General Hospital Corporation, priority 2022, published 2025).
Read-outs that look alike come from different tables or passages of the source. Where a SMILES comes first, the peptide text is derived from it. [ ]: non-standard residue; d: D form. The star is where a group is joined. Dolaproine = CO[C@@H]([C@@H]1CCCN1)[C@@H](C)C(=O)O; Dil = CC[C@H](C)[C@H](NC)[C@@H](CC(=O)O)OC; X1 = C[C@@H](N*)[C@@H](O)c1ccccc1; NMeV = CN[C@H](C(=O)O)C(C)C

Assays:
[1] = Stability of prodrugs in PBS at 37° C., LC-MS; type: physicochemical; conditions: buffer
Procedure: Prodrugs were prepared to concentrations of 10 μM in PBS (pH 7.4, <2% DMF) and incubated at 37° C. to determine the relative stability under physiological conditions (FIG. 14). Aliquots of these solutions were removed after varying time intervals and analyzed via LC-MS on a Waters 3100 Mass Detector with an Xterra MS C18 Column to measure the amount of each prodrug remaining in solution. All measurements were made in triplicate and analyzed in Graphpad Prism to determine the half-lives (991, 257, and 2252 hours were determined for compounds 8, 9, and 10 respectively).

[2] = test system: Bone marrow-derived macrophages (BMDM) from IL12-eYFP reporter mice; assay: Cellular immunostimulation of BMDM (p-NFkB and IL12-eYFP fluorescence); type: cell-based; conditions: 100 nM, 48 hours
Procedure: Bone marrow-derived macrophages (BMDM) were generated from IL12-eYFP reporter mice by dissecting the femurs, flushing out the bone marrow, and culturing isolate with M-CSF supplemented growth media (Luthria G, et al. Nat Commun. 2020; 11:3521]. BMDM were plated in a 96 well plate at a concentration of 5,000 cells per well. These wells were then treated with either free gardiquimod, pATFB-SIL-Mal-Gard (13), or prodrug 13 that had been treated with 10 μM tris(2-carboxyethyl) phosphine) to chemically release the free gardiquimod (all drugs at a concentration of 100 nM). The cells were then incubated for 48 hours then fixed with 4% PFA and stained with Phospho-NF-κB p65 (Ser536) (93H1) Rabbit mAb and AF647 Goat anti-Rabbit IgG. Images were captured on a modified BX63 (Olympus) inverted microscopy system equipped with an environmental chamber and robotic stage, using excitation/emission wavelengths of 513/527 and 640/670 for eYFP and Cy5, respectively. The images were then quantified using ImageJ software (NIH, USA) to determine relative protein expression.

[3] = test system: 8505c (human anaplastic thyroid cancer); assay: Cytotoxicity assay, 72 hour incubation, PrestoBlue (resazurin-based); type: cell-based; conditions: for IC50: Homo sapiens
Procedure: Experiments with cancer cells were performed to assess the degree to which the disclosed linker strategy shields biological activity of the drug payload under un-irradiated conditions, and restore drug activity once irradiated.
All cells were routinely evaluated for mycoplasma contamination and cultured following provider guidelines using 10% FBS (Bio-Techne Sales), 100 IU mL-1 penicillin, 100 μg mL-1 streptomycin (Invitrogen), with incubation at 37° C. and 5% CO2. Cytotoxicity experiments were performed by seeding 5,000 cells per well overnight in a 96-well plate (Corning) before the addition of each drug/conjugate. Empty wells with only media or vehicle-treated cells were used as controls. After addition of the corresponding drugs and a 72 hour incubation, the number of live cells was determined by PrestoBlue (ThermoFisher, USA) staining according to the provider's protocols.

[4] = Drug payload stability after X-ray irradiation, LC/MS chromatograph analysis; type: physicochemical; conditions: 8 Gy X-ray irradiation, 100 uM in PBS, degassed
Procedure: FIG. 5. Illustrates drug payload stability after X-ray irradiation. […] Both drug solutions were prepared to a concentration of 100 uM in PBS and analyzed before and after irradiation. MMAE chromatographs were obtained via ELSD and DOX chromatographs were obtained via UV absorbance scan (200-800 nm).
No difference in cleavage efficiency was found between gamma irradiation from a sealed 137Cs source (primarily 662 keV photons at a dose rate of roughly 0.5 Gy/min), and X-ray irradiation (from a 4000 W tube generating 320 keV photons at 3 Gy/min), and little background release was observed under un-irradiated conditions (FIG. 4).

8505c cell line = assay: Subcellular localization of DOX by intrinsic fluorescence imaging; type: cell-based, human; conditions: ATC cells (8505c)
Procedure: Subcellular localization of DOX in the 8505c cell line was measured using a modified BX63 (Olympus) inverted microscopy system equipped with an environmental chamber and robotic stage. DOX images were collected using a 40× air objective (PLAPO 40×/0.95 numerical aperture), with excitation and emission wavelengths of 489 nm and 508 nm, respectively. All images were processed using cellSens Dimension 3.1.1 (Olympus, USA) and ImageJ 1.53k (NIH, USA) software. Nuclear to cytoplasm fluorescence ratios were calculated and plotted using Excel (Microsoft) and Prism (GraphPad). 20 μM concentration of free (or released) DOX was used, and unirradiated prodrug used the same total (caged and uncaged) DOX concentration as used in the irradiated sample. Following treatment for 72 hours, live cells were immediately imaged by confocal microscopy.

[5] = 10 μM in PBS (pH 7.4, <2% DMF), 37° C., read-out: half-life (converted)

CC[C@@H](C)[C@H]([C@H](CC(=O)N1CCC[C@@H]1[C@@H](OC)C(C)C(=O)N[C@@H](C)[C@H](O)c1ccccc1)OC)N(C)C(=O)[C@H](CC(=O)[C@H](C(C)C)N(C)C(=O)OC(C(=O)OC)c1ccc(NC(=O)OCc2c(F)c(F)c(N=[N+]=[N-])c(F)c2F)cc1)C(C)C (some centres unmarked) [Compound 8]
half-life at 10 μM [1, 5]: 41.3 days

COC(=O)C(OC(=O)N[C@H]1C[C@H](O[C@H]2C[C@](O)(C(=O)CO)Cc3c(O)c4c(c(O)c32)C(=O)c2c(OC)cccc2C4=O)O[C@@H](C)[C@H]1O)c1ccc(NC(=O)OCc2c(F)c(F)c(N=[N+]=[N-])c(F)c2F)cc1 (some centres unmarked) [Compound 9]
half-life at 10 μM [1, 5]: 10.7 days

CCN(Cc1nc2c(N)nc3ccccc3c2n1CC(C)(C)O)C(=O)OC(C(=O)OC)c1ccc(NC(=O)OCc2c(F)c(F)c(N=[N+]=[N-])c(F)c2F)cc1 (centres unmarked) [Compound 10]
immunostimulatory behavior compared to free gardiquimod, caged [2]: attenuated immunostimulatory behavior | immunostimulatory activity after chemical uncaging ([2]; prodrug treated with 10 μM TCEP): restores the immunostimulatory activity | half-life at 10 μM ([1]; pH 7.4): 93.8 days

COC(=O)C(OC(=O)N[C@@H]1C[C@@H](O[C@H]2C[C@](O)(C(=O)CO)Cc3c(O)c4c(c(O)c32)C(=O)c2c(OC)cccc2C4=O)O[C@H](C)[C@H]1O)c1ccc(NC(=O)OCc2cc(OC)cc(OC)c2)cc1 (some centres unmarked) [DMBA-SIL-DOX]
IC50 ([3]; 8505C, light or radiation study, read-out: concentration at which drug inhibited 50% of ATC cell growth): > 10000 nM | fold higher IC50 than that observed for the parent drug ([3]; un-irradiated, 8505c ATC cells): roughly 100 fold

CC[C@H](C)[C@@H]([C@@H](CC(=O)N1CCC[C@H]1[C@H](OC)[C@@H](C)C(=O)N[C@H](C)[C@@H](O)c1ccccc1)OC)N(C)C(=O)[C@@H](NC(=O)[C@@H](NC)C(C)C)C(C)C [MMAE, monomethyl auristatin E] (H-[NMeV]V[Dil][Dolaproine]-X1)
effect of irradiation on the drug payload itself [4]: Neither MMAE nor doxorubicin themselves were substantially affected

COc1cccc2c1C(=O)c1c(O)c3c(c(O)c1C2=O)C[C@@](O)(C(=O)CO)C[C@@H]3O[C@H]1C[C@H](N)[C@H](O)[C@H](C)O1 [doxorubicin]
IC50 ([3]; 8505c ATC cells, read-out: IC50 of parent drug): 94 nM | effect of irradiation on the drug payload itself [4]: Neither MMAE nor doxorubicin themselves were substantially affected | subcellular distribution of DOX fluorescence, free drug (8505c cell line): nuclear accumulation
